Data: a melting point compilation (Tetko et al.)

First: Fc1ccc(C(Br)Br)c(C(Br)Br)c1
Second: Brc1cccc(Br)c1
The melting point of the first is higher: 92 to 97 °C for the first, -7 °C for the second.

Going from `OCc1cc2ccccc2s1` to `CCOC(=O)c1cc2ccccc2o1`, the melting point falls from 100 °C to 30.5 °C.

First: CC(=O)OCCN(CCOC(C)=O)CCOC(C)=O
Second: COC(=O)COC(=O)c1ccc2c(O)c(C(=O)OC)oc2c1
The melting point of the first is lower: -40 °C for the first, 130 °C for the second.

`COc1ccc2ccc(=O)oc2c1CC=C(C)C` and `COc1ccc([N+](=O)[O-])c2ccccc12` cannot be ordered by melting point: 83.5 °C for the first, 81 to 85 °C for the second.

Going from `O=c1c(O)c(-c2ccc(O)cc2)oc2cc(O)cc(O)c12` to `O=[N+]([O-])c1ccc(O)c(-c2cc([N+](=O)[O-])ccc2O)c1`, the melting point falls from 277 °C to 186 °C.

Going from `CN(C)S(=O)N(C)C` to `C[Si](C)(C)NC(=O)N[Si](C)(C)C`, the melting point rises from 31 °C to 232 °C.

Compared with `COC(=O)[C@@]12[C@H]3c4c(c(-c5ccccc5)c5ccccc5c4-c4ccccc4)[C@@H]1C=C[C@]32C(=O)OC`, `O=Cc1sc(-c2ccccc2)nc1-c1ccccc1` is lower in melting point: 210 °C for the first, 121 to 123 °C for the second.

Compared with `COc1cc(C=C2CCCC(=Cc3ccc(O)c(OC)c3)C2=O)ccc1O`, `COc1ccc(C=C(C(=O)O)C(=Cc2ccc(OC)c(OC)c2)C(=O)O)cc1OC` is higher in melting point: 178 °C for the first, 224 °C for the second.

First: Cc1cc(C)c(CC(=O)CSC#N)c(C)c1
Second: CC(=O)c1cc(C)ccc1C
The melting point of the first is higher: 125 to 126 °C for the first, -18.1 °C for the second.

Compared with `O=C(CBr)c1nccs1`, `NC(=O)CBr` is higher in melting point: 54 to 55 °C for the first, 89 °C for the second.

Going from `CC(=NO)C(=O)c1ccccc1` to `CC(=O)OOC(=O)c1ccccc1`, the melting point falls from 114 °C to 37 °C.

First: IC12CC3CC(CC(C3)C1)C2
Second: O=C(O)C1C2CC3(OCCO3)C1CC2Cl (centres undefined)
The melting point of the first is lower: 75.5 °C for the first, 164 to 166 °C for the second.

Compared with `O=C(Cl)Cc1ccc2ccccc2c1`, `O=C(COc1ccc2ccccc2c1)ON1C(=O)CCC1=O` is higher in melting point: 60 to 61 °C for the first, 150 to 152 °C for the second.

First: CCC1CC(O)CC(C)(C)N1O (centres undefined)
Second: CCN1C(=O)OC(C)(C)C1=O
The melting point of the first is lower: 69 to 73 °C for the first, 76.5 °C for the second.

Going from `Cc1nc2cc(C)c(C)cc2s1` to `Cc1ccc2c(C)cccc2c1`, the melting point falls from 84 °C to -16.9 °C.

Compared with `Brc1ccc(C#Cc2ccc(Br)cc2)cc1`, `O=C(C=Cc1ccc(F)cc1)c1ccc(F)cc1` is lower in melting point: 182 to 184 °C for the first, 113 to 118 °C for the second.

Compared with `CCOC(=O)NN`, `CCOC(=O)C=Cc1ccc(O)c(OC)c1` is higher in melting point: 46 °C for the first, 57 to 59 °C for the second.

Compared with `Cc1ccc(S(=O)(=O)N[C@@H](c2ccccc2)[C@@H](N)c2ccccc2)cc1`, `O=C(CC(=O)c1ccccc1)c1ccccc1` is lower in melting point: 127 to 130 °C for the first, 78 °C for the second.

First: Cc1ccncc1[N+](=O)[O-]
Second: N#Cc1c([N+](=O)[O-])ccc(Cl)c1Cl
The melting point of the first is lower: 20 °C for the first, 90 to 93 °C for the second.

Compared with `Nc1n[nH]cc1Br`, `Nc1cc(Br)ccc1Cl` is lower in melting point: 133 to 135 °C for the first, 48 to 49 °C for the second.

First: C=C(Br)CC(NC(=O)OCC1c2ccccc2-c2ccccc21)C(=O)O (centres undefined)
Second: O=C(O)[C@@H]1CSCN1C(=O)OCC1c2ccccc2-c2ccccc21
The melting point of the first is lower: 120 °C for the first, 156 to 158 °C for the second.

First: CC(=O)OCN1C(=O)NC(c2ccccc2)(c2ccccc2)C1=O
Second: O=C1CCC2(c3ccccc3)OCC(c3ccccc3)N12 (centres undefined)
The melting point of the first is higher: 158 °C for the first, 78 °C for the second.

First: FC(F)(F)C1(F)C(F)(F)C(F)(F)C(F)(F)C(F)(C(F)(F)F)C1(F)F (centres undefined)
Second: OC(C(F)(F)F)(C(F)(F)F)C(O)(C(F)(F)F)C(F)(F)F
The melting point of the first is lower: -55 °C for the first, 18 to 20 °C for the second.

Compared with `CC(C)CC#N`, `Cc1cc(C(=O)CC#N)c(C(F)(F)F)o1` is higher in melting point: -101 °C for the first, 75 to 77 °C for the second.

Compared with `O=C(Nc1c(Cl)cccc1Cl)C(C(F)(F)F)C(F)(F)F`, `OCC#Cc1cc(C(F)(F)F)cc(C(F)(F)F)c1` is lower in melting point: 196 °C for the first, 58 to 60 °C for the second.

Going from `Cc1ccc[nH]1` to `O=Cc1cccc2cc[nH]c12`, the melting point rises from -35.6 °C to 88 °C.

First: CC(=O)c1ccc(C2CCCCC2)cc1
Second: CC12CCC(=O)N1C(c1ccccc1)CO2 (centres undefined)
The melting point of the first is lower: 68 °C for the first, 125 °C for the second.

Compared with `COC(=O)C1=C(C)NC(=S)NC1c1cccc([N+](=O)[O-])c1` (centres undefined), `COc1cc(C(=O)c2ccccc2Cl)c([N+](=O)[O-])cc1OC` is lower in melting point: 247 °C for the first, 122 °C for the second.

First: N#C/C(=C/c1ccc(F)cc1)c1nc(-c2ccc(Cl)cc2)cs1
Second: O=C(O)C=Cc1ccc(Sc2ccc(Cl)cc2)c([N+](=O)[O-])c1
The melting point of the first is lower: 184 °C for the first, 233 to 235 °C for the second.

First: CS[C@H]1C(=O)[C@@H]2CC[C@]3(C)[C@@H](OC(C)(C)C)CC[C@]13[C@H]2Cl
Second: C[C@]12CCC(=O)C=C1CC[C@@H]1[C@@H]2CC[C@@]2(C)[C@H]1CC[C@]2(O)C#Cc1ccccc1
The melting point of the first is lower: 108 °C for the first, 185 to 187 °C for the second.

First: Cc1cc(O)no1
Second: Cc1onc(-c2ccccc2)c1CN
The melting point of the first is higher: 86.5 °C for the first, 66 to 68 °C for the second.

Compared with `CC1(C)C2CC[C@]1(CS(=O)(=O)O)C(=O)C2`, `CC12CCC3C(CCC4CC(C[N+](=O)[O-])=CCC43C)C1CCC2O` (centres undefined) is lower in melting point: 200 °C for the first, 129 °C for the second.

First: C#CC1(O)CCC2C3CCC4=CCCCC4C3C(=C)CC21CC (centres undefined)
Second: O=C1CSC2(CCN(CCCN3c4ccccc4Sc4ccc(Cl)cc43)CC2)N1
The melting point of the first is lower: 110 °C for the first, 155 °C for the second.

Compared with `Cc1nc(N)ccc1C#N`, `N#Cc1csc2ccc(Cl)cc12` is lower in melting point: 155 to 156 °C for the first, 121 to 122 °C for the second.

First: c1ccc2sc(SSc3nc4ccccc4s3)nc2c1
Second: Cc1ccccc1-c1cc(-c2ccccc2)[nH]n1
The melting point of the first is higher: 180 °C for the first, 107 to 108 °C for the second.

First: CC(C)(C)OC(=O)NC(Cc1cccc(F)c1)C(=O)O (centres undefined)
Second: O=C(O)[C@H](Cc1ccccc1)NC(=O)C(F)(F)F
The melting point of the first is lower: 78 °C for the first, 126 to 127 °C for the second.

First: COc1ccc(C(=O)CBr)c(OC)c1
Second: COc1ccc(O)c(C(C)=O)c1
The melting point of the first is higher: 104 °C for the first, 49 °C for the second.

First: O=C(Cl)C(=O)Cl
Second: O=C(O)C(=O)CBr
The melting point of the first is lower: -12 °C for the first, 79 to 82 °C for the second.

First: O=[N+]([O-])c1cc(S(=O)(=O)Cl)sc1Cl
Second: Nc1c(Br)cc(Br)cc1[N+](=O)[O-]
The melting point of the first is lower: 53 °C for the first, 130 °C for the second.

Compared with `O=C1C=C(O)c2cccc3cccc1c23`, `Ic1cccc2cccc(I)c12` is lower in melting point: 261 to 264 °C for the first, 106 °C for the second.

First: Cn1c(=O)c(C2=NNC(=O)C2=Cc2ccccn2)c(O)c2ccccc21
Second: Cn1c(=O)c(C2=NNC(=O)C2=CNc2ncccn2)c(O)c2ccccc21
The melting point of the first is higher: 292 °C for the first, 279 °C for the second.

First: CN(C(=S)Cl)c1ccc(Cl)cc1
Second: Cc1oc(-c2ccc(Cl)cc2)cc1C(=O)Cl
The melting point of the first is lower: 76 to 78 °C for the first, 122 to 124 °C for the second.

First: CC(=O)N1C(=O)N2CCc3ccccc3C2(c2ccc(Cl)cc2)C1=O (centres undefined)
Second: O=C1Cc2ccc3ccccc3c21
The melting point of the first is higher: 135 to 136 °C for the first, 97 °C for the second.

Compared with `O=[N+]([O-])c1ccc(OC2OC(CO)C(O)C(O)C2O)cc1` (centres undefined), `O=[N+]([O-])c1ccc(-c2nnc3n2NC(c2ccco2)S3)cc1` (centres undefined) is lower in melting point: 211 °C for the first, 210 °C for the second.

First: CSc1nc(N)ns1
Second: COc1ccc(-c2csnn2)cc1
The melting point of the first is higher: 156 to 158 °C for the first, 89 to 93 °C for the second.

First: O=C(O)Cn1c(C(F)(F)F)nc2ccccc21
Second: Nc1nn2c(C(F)(F)F)cc(=O)[nH]c2c1/N=N/c1ccccc1
The melting point of the first is lower: 248 °C for the first, 283 °C for the second.

Compared with `Cc1ccc(-c2csnn2)cc1`, `Cc1csc(NS(=O)(=O)c2ccc(N)cc2)n1` is higher in melting point: 73 to 75 °C for the first, 237 °C for the second.

First: CNC(N)=S
Second: CC(=O)C=C(C)N
The melting point of the first is higher: 120 °C for the first, 39 °C for the second.

First: CN[C@@H](Cc1ccc(O)cc1)C(=O)O
Second: Oc1ccc(O)c(Cc2ccccc2)c1
The melting point of the first is higher: 293 °C for the first, 106 °C for the second.

Compared with `CCCCCCCCCCCC(CCCCCCCC)c1ccccc1` (centres undefined), `CCNCC(O)c1cccc(O)c1` (centres undefined) is higher in melting point: 17.9 °C for the first, 148 °C for the second.

Going from `CCOc1ccccc1C=O` to `COc1ccc(C=O)cc1Br`, the melting point rises from 21 °C to 51 °C.

First: Cc1ccc(Nc2ccc([N+](=O)[O-])cc2[N+](=O)[O-])cc1
Second: O=Cc1ccccc1/C=C/c1ccc([N+](=O)[O-])cc1[N+](=O)[O-]
The melting point of the first is lower: 140 °C for the first, 186 °C for the second.

Compared with `O=C(O)CCP(=O)(O)O`, `O=C(O)C(F)F` is lower in melting point: 165 to 166 °C for the first, -1 °C for the second.

First: N#CCc1ccc(OS(=O)(=O)c2cc(Cl)cc(Cl)c2)cc1
Second: N#CCc1ccc(OC(F)(F)F)cc1
The melting point of the first is higher: 81 to 83 °C for the first, 29 °C for the second.

Compared with `CC(=O)c1cc(OC(F)(F)F)ccc1O`, `Oc1cc(C(F)(F)F)nc(S)n1` is higher in melting point: 30 °C for the first, 251 °C for the second.

Going from `CCCN` to `CCn1c(=O)n(CC)c(=O)n(CC)c1=O`, the melting point rises from -83 °C to 96.8 °C.

First: CC1(C)OC2C(=O)OC(CBr)C2O1 (centres undefined)
Second: CCC1=[N+]([O-])C(C)(C)N(C)C1(C)C
The melting point of the first is higher: 85 to 89 °C for the first, 32 to 34 °C for the second.

First: CNC(=O)c1cc([N+](=O)[O-])cc([N+](=O)[O-])c1
Second: O=C(O)c1cc(F)c(F)cc1[N+](=O)[O-]
The melting point of the first is lower: 148 to 149 °C for the first, 165 °C for the second.

Going from `COP(=S)(OC)Oc1ccc(C#N)cc1` to `N#Cc1cccc(S(=O)(=O)Cl)c1`, the melting point rises from 14.5 °C to 50 °C.

First: CC(CC1CC(=O)c2c3c(c4ccccc4c2O1)O[C@@H]1CC(=O)O[C@H]31)O[Si](C)(C)C(C)(C)C (some centres undefined)
Second: C=CC=C(C=C1C(=O)NN=C1c1c(O)c2ccccc2n(C)c1=O)C(Cl)=CC
The melting point of the first is lower: 131 to 133 °C for the first, 260 °C for the second.

Compared with `Cc1cc(=O)oc(C)c1C(=O)O`, `NC(=O)c1c(F)ccc(Cl)c1F` is lower in melting point: 154 to 156 °C for the first, 135 °C for the second.

First: c1coc(CSCc2ccco2)c1
Second: Cc1c(C(=O)Cl)cnn1-c1ccccc1
The melting point of the first is lower: 31 °C for the first, 147 to 148 °C for the second.

First: COc1ccccc1NC(=O)c1cnc(C(C)(C)C)cn1
Second: COc1ccc(-c2cc(C(F)(F)F)[nH]n2)cc1OC
The melting point of the first is lower: 78 °C for the first, 150 to 156 °C for the second.

First: N#Cc1ccc(C(F)(F)F)nc1
Second: Cc1cc(C(F)(F)F)n2nc(N)c(/N=N/c3ccc4ccccc4c3)c2n1
The melting point of the first is lower: 39 °C for the first, 246 °C for the second.

`O=C1c2ccccc2CC2C=CC=CC12` (centres undefined) showed a melting point of 152 °C.
